In patent US10947242B2, “[1,2,4]triazolo[1,5and#8208;A]pyrimidine compounds as PDE2 inhibitors” (Janssen Pharmaceutica NV, priority 2016, dated 2021):
Read-outs that look alike come from different tables or passages of the source.

Tests used:
[1] = target: T1, Human recombinant PDE10A (hPDE10A) (Homo sapiens, UniProt Q9Y233); assay: In vitro assay PDE10A, human clone (SPA, 3H-cAMP hydrolysis); assay type: biochemical
T1 construct: His tag (inferred from metal chelate purification); made in house; host or cells: Sf9 insect cells (baculovirus)
T1 sequence (Q9Y233 267-1055): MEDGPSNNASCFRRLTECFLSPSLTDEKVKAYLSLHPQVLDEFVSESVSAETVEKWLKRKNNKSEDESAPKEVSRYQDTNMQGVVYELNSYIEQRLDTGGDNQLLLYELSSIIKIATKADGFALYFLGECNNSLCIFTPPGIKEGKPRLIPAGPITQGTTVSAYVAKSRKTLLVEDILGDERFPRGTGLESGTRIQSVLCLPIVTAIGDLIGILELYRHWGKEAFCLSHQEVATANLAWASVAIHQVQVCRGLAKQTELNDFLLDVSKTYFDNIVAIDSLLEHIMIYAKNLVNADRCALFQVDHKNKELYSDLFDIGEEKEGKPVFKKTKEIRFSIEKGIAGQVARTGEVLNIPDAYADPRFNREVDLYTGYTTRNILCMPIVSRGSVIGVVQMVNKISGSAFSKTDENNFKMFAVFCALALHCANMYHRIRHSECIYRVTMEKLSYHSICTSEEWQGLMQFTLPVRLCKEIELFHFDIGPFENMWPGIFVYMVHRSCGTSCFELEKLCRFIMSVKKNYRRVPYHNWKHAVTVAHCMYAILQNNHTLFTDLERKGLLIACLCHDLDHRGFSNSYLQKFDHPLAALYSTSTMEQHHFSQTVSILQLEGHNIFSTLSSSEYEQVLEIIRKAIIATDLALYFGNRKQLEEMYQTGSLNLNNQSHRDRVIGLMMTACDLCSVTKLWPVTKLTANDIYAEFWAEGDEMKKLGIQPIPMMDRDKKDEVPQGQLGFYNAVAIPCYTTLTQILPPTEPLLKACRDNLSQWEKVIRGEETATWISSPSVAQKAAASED
Outline: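 Human recombinant PDE10A was expressed in Sf9 cells via baculovirus and incubated with compound in 50 mM Tris pH 7.8, 8.3 mM MgCl2, 1.7 mM EGTA. Substrate was 60 nM cAMP plus 0.008 μCi 3H-cAMP for 60 min at room temperature, read by SPA scintillation counting. Controls used 1% DMSO, and blanks omitted enzyme.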

[2] = target: T2, Human recombinant PDE2A (hPDE2A) (Homo sapiens, UniProt O00408); assay: In vitro assay PDE2A (SPA, 3H-cGMP hydrolysis); assay type: biochemical; settings: for Emax: read-out: hPDE2A Emax
T2 construct: His tag (inferred from metal chelate purification); made in house; host or cells: Sf9 insect cells (baculovirus)
T2 sequence (O00408 whole entry): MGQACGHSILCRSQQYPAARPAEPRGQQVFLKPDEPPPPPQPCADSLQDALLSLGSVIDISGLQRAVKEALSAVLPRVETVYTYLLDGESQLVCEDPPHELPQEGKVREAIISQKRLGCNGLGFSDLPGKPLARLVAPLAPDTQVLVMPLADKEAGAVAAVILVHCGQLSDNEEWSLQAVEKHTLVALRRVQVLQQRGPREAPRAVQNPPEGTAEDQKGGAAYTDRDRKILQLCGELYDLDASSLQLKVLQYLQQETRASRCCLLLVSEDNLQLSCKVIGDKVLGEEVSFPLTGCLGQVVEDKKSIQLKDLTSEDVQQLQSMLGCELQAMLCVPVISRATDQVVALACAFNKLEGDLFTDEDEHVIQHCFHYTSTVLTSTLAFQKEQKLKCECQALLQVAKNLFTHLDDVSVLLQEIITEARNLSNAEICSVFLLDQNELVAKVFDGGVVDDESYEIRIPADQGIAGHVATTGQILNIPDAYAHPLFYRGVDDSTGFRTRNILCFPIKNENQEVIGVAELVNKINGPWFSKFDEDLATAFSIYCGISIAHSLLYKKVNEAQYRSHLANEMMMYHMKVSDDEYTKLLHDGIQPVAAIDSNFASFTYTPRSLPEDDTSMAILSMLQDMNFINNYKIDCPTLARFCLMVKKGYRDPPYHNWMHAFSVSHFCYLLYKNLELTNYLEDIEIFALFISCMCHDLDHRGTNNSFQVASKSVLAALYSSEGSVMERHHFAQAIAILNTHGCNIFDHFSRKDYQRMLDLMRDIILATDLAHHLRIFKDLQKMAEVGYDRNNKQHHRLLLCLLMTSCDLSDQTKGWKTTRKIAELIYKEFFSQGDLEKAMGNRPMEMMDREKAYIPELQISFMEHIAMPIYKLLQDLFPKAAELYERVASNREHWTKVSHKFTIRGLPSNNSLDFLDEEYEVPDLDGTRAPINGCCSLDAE

[3] = target: T3, Human recombinant PDE3A (hPDE3A) (Homo sapiens, UniProt Q14432); assay: In vitro assay PDE3A (SPA, 3H-cAMP hydrolysis); assay type: biochemical; settings: for IC50: hPDE3B pIC50, read-out: pIC50 (converted); for Emax: read-out: hPDE3B Emax, read-out: Emax;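 for all read-outs here: the method names PDE3A and the table heading PDE3B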
T3 construct: purchased Scottish Biomedical; host or cells: Sf9 insect cells
T3 sequence (Q14432 whole entry): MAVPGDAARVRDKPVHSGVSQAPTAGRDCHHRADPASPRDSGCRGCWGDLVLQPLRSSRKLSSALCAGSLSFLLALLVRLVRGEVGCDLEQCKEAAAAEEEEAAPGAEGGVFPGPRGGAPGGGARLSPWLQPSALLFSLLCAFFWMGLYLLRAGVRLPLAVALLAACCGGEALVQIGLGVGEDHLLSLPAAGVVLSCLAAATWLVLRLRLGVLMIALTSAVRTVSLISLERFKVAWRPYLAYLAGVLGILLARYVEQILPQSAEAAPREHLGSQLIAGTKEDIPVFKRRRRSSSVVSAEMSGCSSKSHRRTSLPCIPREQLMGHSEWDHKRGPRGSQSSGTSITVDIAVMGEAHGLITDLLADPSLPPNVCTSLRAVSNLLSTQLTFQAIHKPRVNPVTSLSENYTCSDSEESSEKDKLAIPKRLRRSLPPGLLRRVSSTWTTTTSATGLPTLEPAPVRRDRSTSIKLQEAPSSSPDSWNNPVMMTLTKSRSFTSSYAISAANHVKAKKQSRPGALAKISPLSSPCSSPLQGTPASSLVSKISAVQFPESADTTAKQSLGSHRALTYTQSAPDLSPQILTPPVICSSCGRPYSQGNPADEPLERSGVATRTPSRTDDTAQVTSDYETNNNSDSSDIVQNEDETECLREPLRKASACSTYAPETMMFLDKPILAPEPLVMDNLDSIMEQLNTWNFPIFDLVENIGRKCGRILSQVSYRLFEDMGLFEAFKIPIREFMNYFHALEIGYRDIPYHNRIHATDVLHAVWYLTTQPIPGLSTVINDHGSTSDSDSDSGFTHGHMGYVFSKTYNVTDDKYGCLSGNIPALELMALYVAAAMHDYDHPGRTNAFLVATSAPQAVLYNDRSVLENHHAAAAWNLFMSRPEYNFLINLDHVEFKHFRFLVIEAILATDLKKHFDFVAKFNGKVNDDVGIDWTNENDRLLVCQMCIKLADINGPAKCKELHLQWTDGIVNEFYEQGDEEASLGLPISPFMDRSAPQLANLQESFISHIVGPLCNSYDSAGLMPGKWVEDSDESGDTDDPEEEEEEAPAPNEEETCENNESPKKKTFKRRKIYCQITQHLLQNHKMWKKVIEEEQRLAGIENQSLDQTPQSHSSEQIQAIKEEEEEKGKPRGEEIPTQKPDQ
Outline: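 Human PDE3A, cloned from brain, as partially purified Sf9 lysate. Substrate 0.4 μM cAMP plus [3H]-cAMP (2.4 μCi/ml final) in 50 mM Tris pH 7.8, 8.3 mM MgCl2, 1.7 mM EGTA, 60 min at room temperature, 1% DMSO final. Hydrolysis read by SPA scintillation counting against no-enzyme blanks and DMSO controls.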

PDE2A = target: T4, PDE2A (Rattus norvegicus, UniProt Q01062); assay: PDE2 occupancy by test compounds, ex-vivo autoradiography with [3H]B-17a; assay type: in vivo, Male Wistar rats; settings: for receptor occupancy at 10 mg/kg: percentage receptor occupancy, ex-vivo autoradiography, striatum
T4 construct: Twenty μm-thick striatal sections were cut; from tissue; host or cells: rat brain, striatal sections
T4 sequence (Q01062 1-928): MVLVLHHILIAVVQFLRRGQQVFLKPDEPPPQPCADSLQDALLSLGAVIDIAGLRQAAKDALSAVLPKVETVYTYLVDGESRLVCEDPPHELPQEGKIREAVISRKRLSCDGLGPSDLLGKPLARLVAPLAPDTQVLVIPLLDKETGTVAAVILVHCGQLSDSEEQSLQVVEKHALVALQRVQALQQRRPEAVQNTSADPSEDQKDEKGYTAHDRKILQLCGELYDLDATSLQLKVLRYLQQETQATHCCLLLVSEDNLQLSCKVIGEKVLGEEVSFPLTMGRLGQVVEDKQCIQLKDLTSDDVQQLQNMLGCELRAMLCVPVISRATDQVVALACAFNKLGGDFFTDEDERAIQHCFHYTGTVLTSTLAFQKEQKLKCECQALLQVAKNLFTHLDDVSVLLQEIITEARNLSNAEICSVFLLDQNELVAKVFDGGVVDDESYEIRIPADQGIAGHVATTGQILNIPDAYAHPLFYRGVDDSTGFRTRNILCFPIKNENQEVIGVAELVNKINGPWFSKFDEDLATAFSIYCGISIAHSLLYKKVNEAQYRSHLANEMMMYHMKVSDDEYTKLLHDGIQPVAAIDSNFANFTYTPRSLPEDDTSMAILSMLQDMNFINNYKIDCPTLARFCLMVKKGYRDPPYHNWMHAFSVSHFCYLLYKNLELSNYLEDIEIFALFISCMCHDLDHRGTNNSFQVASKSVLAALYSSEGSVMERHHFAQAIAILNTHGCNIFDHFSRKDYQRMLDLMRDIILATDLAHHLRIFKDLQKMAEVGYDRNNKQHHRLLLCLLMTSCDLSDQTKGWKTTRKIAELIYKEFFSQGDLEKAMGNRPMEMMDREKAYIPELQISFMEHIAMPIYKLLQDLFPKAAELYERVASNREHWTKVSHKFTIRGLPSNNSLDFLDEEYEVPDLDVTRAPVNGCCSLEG

[4] = human clone (h), default, read-out: hPDE10A2 Emax
[5] = human clone (h), default, read-out: hPDE10A2 pIC50 (converted)
[6] = human recombinant PDE2A, 10 μM cGMP substrate, read-out: hPDE2A pIC50 (converted)
[7] = read-out: hPDE2A pIC50 (converted)
[8] = hPDE2A pIC50, human recombinant PDE2A, 10 μM cGMP substrate
[9] = human clone by default (no (r) mark), read-out: hPDE10A2 or rPDE10A2 Emax
[10] = human clone by default (no (r) mark), read-out: hPDE10A2 or rPDE10A2 pIC50 (converted)

COc1cc(C(=O)N2CC[C@@H](C)[C@H](c3cc(C(F)F)nc4ncnn34)C2)cc(C(C)C)n1 [Compound 122]
Emax [1, 4]: 100% | IC50 [1, 5]: 74.1 nM | IC50 [2, 6]: 1.86 nM | Emax ([2]; human recombinant PDE2A): 100% | Emax [2]: 100% | IC50 [2, 7]: 1.86 nM | IC50 [3]: 1820 nM | Emax [3]: 86% | receptor occupancy at 10 mg/kg (PDE2A; po, route PO (oral)): 0% | melting point: 160.2 °C

Cc1cc(C)cc(C(=O)N2CC[C@@H](C)[C@H](c3cc(C(F)F)nc4ncnn34)C2)c1 [Compound 123]
Emax [1, 4]: 99% | IC50 [1, 5]: 91.2 nM | IC50 ([2]; hPDE2A pIC50): 1.95 nM | IC50 [2, 8]: 1.95 nM | Emax [2]: 99% | IC50 [3]: 1620 nM | Emax [3]: 87% | receptor occupancy at 10 mg/kg (PDE2A; po, route PO (oral)): 4% | melting point: 203.87 °C

Cc1csc(C(=O)N2CC[C@@H](C)[C@H](c3cc(C(F)F)nc4ncnn34)C2)c1 [Compound 126]
Emax [1, 4]: 97% | IC50 [1, 5]: 112 nM | IC50 [2, 6]: 2.09 nM | Emax ([2]; human recombinant PDE2A): 101% | Emax [2]: 101% | IC50 [2, 7]: 2.09 nM | IC50 [3]: 6030 nM | Emax [3]: 65% | receptor occupancy at 10 mg/kg (PDE2A; po, route PO (oral)): 31% | melting point: 114.32 °C

Cc1nc2ccc(C(=O)N3CC[C@@H](C)[C@H](c4cc(C(F)F)nc5ncnn45)C3)cc2o1 [Compound 127]
Emax [1, 4]: 99% | IC50 [1, 5]: 25.7 nM | IC50 [2, 6]: 2.24 nM | Emax ([2]; human recombinant PDE2A): 99% | Emax [2]: 99% | IC50 [2, 7]: 2.24 nM | IC50 [3]: 437 nM | Emax [3]: 94% | receptor occupancy at 10 mg/kg (PDE2A; po, route PO (oral)): 34% | receptor occupancy at 10 mg/kg (PDE2A; sc, route SC (subcutaneous)): 53% | melting point: 139.13 °C

Cc1cc(C(=O)N2CC[C@@H](C)[C@H](c3cc(C(F)F)nc4ncnn34)C2)cc(Cl)c1F [Compound 129]
Emax [1, 4]: 99% | IC50 [1, 5]: 91.2 nM | IC50 ([2]; hPDE2A pIC50): 2.29 nM | IC50 [2, 8]: 2.29 nM | Emax [2]: 101% | IC50 [3]: 1950 nM | Emax [3]: 85% | receptor occupancy at 10 mg/kg (PDE2A; po, route PO (oral)): 21% | melting point: 140.78 °C

COc1cc(C(=O)N2CC[C@@H](C)[C@H](c3cc(C(F)F)nc4ncnn34)C2)ccc1Cl [Compound 130]
Emax [1, 4]: 96% | IC50 [1, 5]: 135 nM | IC50 [2, 6]: 2.45 nM | Emax ([2]; human recombinant PDE2A): 100% | Emax [2]: 100% | IC50 [2, 7]: 2.45 nM | IC50 [3]: 1740 nM | Emax [3]: 87% | receptor occupancy at 10 mg/kg (PDE2A; po, route PO (oral)): 0% | melting point: 193.85 °C

Cc1cc(C#N)cc(C(=O)N2CC[C@@H](C)[C@H](c3cc(C(F)F)nc4ncnn34)C2)c1 [Compound 131]
Emax [1, 4]: 99% | IC50 [1, 5]: 40.7 nM | IC50 ([2]; hPDE2A pIC50): 2.45 nM | IC50 [2, 8]: 2.45 nM | Emax [2]: 98% | IC50 [3]: 7760 nM | Emax [3]: 61% | receptor occupancy at 10 mg/kg (PDE2A; po, route PO (oral)): 0% | melting point: 224.39 °C

Cc1cc(C(=O)N2CC[C@@H](C)[C@H](c3cc(C(F)F)nc4ncnn34)C2)cc(C(F)(F)F)n1 [Compound 132]
Emax [1, 4]: 98% | IC50 [1, 5]: 200 nM | IC50 [2, 6]: 2.51 nM | Emax ([2]; human recombinant PDE2A): 101% | Emax [2]: 101% | IC50 [2, 7]: 2.51 nM | IC50 [3]: > 10000 nM | Emax [3]: 46% | ED50 (PDE2A; route PO (oral), drug dose producing 50% receptor occupancy, read-out: PDE Occupancy ED50): 5 mg/kg | receptor occupancy at 10 mg/kg (PDE2A; sc, route SC (subcutaneous)): 76% | melting point: 116.57 °C

COc1ccc(C(=O)N2CC[C@@H](C)[C@H](c3cc(C(F)F)nc4ncnn34)C2)cc1OC(F)F [Compound 133]
Emax [1, 4]: 98% | IC50 [1, 5]: 135 nM | IC50 [2, 6]: 2.95 nM | Emax ([2]; human recombinant PDE2A): 100% | Emax [2]: 100% | IC50 [2, 7]: 2.95 nM | IC50 [3]: 1620 nM | Emax [3]: 85% | receptor occupancy at 10 mg/kg (PDE2A; po, route PO (oral)): -19% | melting point: 152.33 °C

Cc1cc(C(=O)N2CC[C@@H](C)[C@H](c3cc(C(F)F)nc4ncnn34)C2)cc(F)c1F [Compound 189]
Emax [1, 4]: 96% | IC50 [1, 5]: 186 nM | IC50 ([2]; hPDE2A pIC50): 5.13 nM | IC50 [2, 8]: 5.13 nM | Emax [2]: 100% | IC50 [3]: 2750 nM | Emax [3]: 80% | receptor occupancy at 10 mg/kg (PDE2A; po, route PO (oral)): 9% | melting point: 152.03 °C

C[C@@H]1CCN(C(=O)c2ccc(F)c(C(F)F)c2)C[C@H]1c1cc(C(F)F)nc2ncnn12 [Compound 191]
Emax [1, 4]: 97% | IC50 [1, 5]: 224 nM | IC50 [2, 6]: 12.9 nM | Emax ([2]; human recombinant PDE2A): 100% | Emax [2]: 100% | IC50 [2, 7]: 12.9 nM | IC50 [3]: 3890 nM | Emax [3]: 74% | receptor occupancy at 10 mg/kg (PDE2A; po, route PO (oral)): -18% | melting point: 162.07 °C

C[C@@H]1CCN(C(=O)c2ccc(OC(F)F)c(F)c2)C[C@H]1c1cc(C(F)F)nc2ncnn12 [Compound 192]
Emax [1, 4]: 99% | IC50 [1, 5]: 72.4 nM | IC50 [2, 6]: 9.33 nM | Emax ([2]; human recombinant PDE2A): 99% | Emax [2]: 99% | IC50 [2, 7]: 9.33 nM | IC50 [3]: 724 nM | Emax [3]: 95% | receptor occupancy at 10 mg/kg (PDE2A; po, route PO (oral)): -13% | melting point: 110.16 °C

Cc1cc([C@@H]2CN(C(=O)c3cc(C4CC4)ncc3F)CC[C@H]2C)n2ncnc2n1 [Compound 224]
Emax [1, 9]: 99% | IC50 [1, 10]: 70.8 nM | Emax [2]: 100% | IC50 [2, 7]: 3.02 nM | IC50 [3]: 1050 nM | Emax [3]: 87% | receptor occupancy at 10 mg/kg (PDE2A; po, route PO (oral)): -6% | melting point: 153.14 °C

COc1cc(C(=O)N2CC[C@@H](C)[C@H](c3cc(C)nc4ncnn34)C2)c(F)cn1 [Compound 225]
Emax [1, 9]: 98% | IC50 [1, 10]: 93.3 nM | Emax [2]: 99% | IC50 [2, 7]: 11.5 nM | IC50 [3]: 1780 nM | Emax [3]: 83% | receptor occupancy at 10 mg/kg (PDE2A; po, route PO (oral)): -6% | melting point: 178.64 °C
